# In patent US20070122907A1, “Orchid culturing method” (priority 2005, published 2007):
# Key:
# Phalaenopsis plants = experiment: Induction of spiking in potted Phalaenopsis by spraying, number of inflorescences per plant; type: in vivo; conditions: spray 1000 ppm, 0.1% Zipper, 1% DMSO, 100 plants
# From the text: Growing conditions for the plants throughout the whole greenhouse stay are the same, except for the above discussed variations in light and temperature. Preferably this means that the plants are potted in pots with a diameter of 10-20 cm, with a growing medium of bark, coconut, Styrofoam, sphagnum moss and turf. Preferably they are stored on table-high racks, which facilitates handling. Light intensity on the surface of the pot is 3000-15000 lux (see Schapendonlk, A.H.C.M., “Belichting Phalaenopsis”, PT-Project 12170, productverslag, Productschap Tuinbouw). Normal daylight is maintained, but preferably in wintertime a lights on:lights off regime of 14:10 hours is used. Watering is preferably automated and is taken care of by a sprinkler system or any other spraying system, an ebb and flow system, via gutters running along the racks, or by submerging the pots in a water basin Nutrients and/or fertiliser are added to the water on a regular basis (EC 0,5-2, NPK 20-20-20). See also ook “Cultivation Guidelines Phalaenopsis Pot Plants, supra.
# In June 2004 three groups of Phalaenopsis plants have been induced 6 months after potting. For testing 100 plants were treated and 100 non-treated controls were used per variety. Both groups of plants were cultured as described above. […] The results in Table 1 show the number of inflorescences per plant for the different test groups.
# Dendrobium = conditions: application to the mature pseudobulbs, not the developing ones; cited from earlier work
# Phalaenopsis = conditions: cited from earlier work
smiles,measurement,setting,value
"c1ccc(CNc2ncnc3nc[nH]c23)cc1 [6-BA-P, 6-benzylaminopurine]",Average stemcount treated,"Phalaenopsis plants; variety Anthura Malaga, untreated 1.23",3.61
same,Average stemcount treated,"Phalaenopsis plants; variety Brother John Red Delight, untreated 1.13",3.20
same,Average stemcount treated,"Phalaenopsis plants; variety Dutch Lady, untreated 1.58",3.84
same,Average stemcount treated,"Phalaenopsis plants; variety Golden Treasure, untreated 1.44",2.97
same,Average stemcount treated,"Phalaenopsis plants; variety Lippe Flair 344, untreated 1.32",3.38
same,Average stemcount treated,"Phalaenopsis plants; variety Maliby Leopard, untreated 1.51",3.12
same,triggering of spiking,Dendrobium,shown to trigger spiking
same,induction of off-season spiking,Phalaenopsis,unable to induce off-season spiking
